Among the data in patent US20090264289A1, “Use of Arylcarboxylic Acid Biphenylamides for Seed Treatment” (BASF SE, priority 2006, published 2009) are Infected leaf area values, retold here.

Holding throughout (format): in vivo
In one assay the test system is Erysiphe graminis. As to the kind of experiment: Activity against Erysiphe graminis on wheat (solution pipetted to seedlings in vermiculite). Conditions: inoculated 7 days after treatment, 7 days incubation, control 80. The procedure:
(§1) Activity Against Erysiphe graminis on Wheat The active compounds were formulated as a stock solution in acetone at a concentration of 10 000 ppm. The stock solution was diluted with water to the stated active compound concentration. 1 ml of the respective solution was pipetted to wheat seedlings grown in vermiculite (10 to 12 seedlings per pot). 7 days after the treatment the wheat plants were inoculated with a spore suspension of Erysiphe graminis. After 7 days of incubation, the extent of infection was determined visually in %. The concentration is given in g of active compound (g a.i.) per 100 kg of seeds.

Assay [1] deals with Septoria tritici. Description: Activity against Septoria tritici on wheat (seed treatment). The note with it: inoculated 14 days after sowing, 24 days incubation, control 85. The protocol:
(§2) Activity Against Septoria tritici on Wheat (Seed Treatment) 9.6 mg of the active compound Ia.90 was dissolved in 1 ml of acetone to give a stock solution. The stock solution was diluted with acetone to give the test solution. Aliquots of 4.8 g of wheat seeds were placed in glass vials, where they were treated in an air stream with 0.5 ml of the test solution containing the active compound. In each case, 10 grains were sown in pots of 8 cm diameter. Untreated grains served as control. 14 days after sowing, the wheat plants were inoculated with a spore suspension of Septoria tritici. After 24 days of incubation, the extent of infection was determined visually in %. The concentration is given in g of active compound (g a.i.) per 100 kg of seeds.

Assay [2] has as its system Septoria tritici. Description: Activity against Septoria tritici on wheat (seedlings treated, detached leaf portions on agar inoculated). The note with it: wheat seedlings in vermiculite, leaf portions on agar inoculated 7 days after treatment, 18° C., 18 days incubation, control 100. The procedure: Activity Against Septoria tritici on Wheat The active compound Ia.1 was formulated as a stock solution in acetone at a concentration of 10 000 ppm. The stock solution was diluted with water to the stated active compound concentration. 1 ml of the respective solution was pipetted to wheat seedlings grown in vermiculite (10 to 12 seedlings per pot). 7 days after the treatment leaf portions of 5 cm length were placed in petri dishes filled with aqueous agar. The leaf portions were then inoculated with a spore suspension of Septoria tritici. The closed Petri dishes were incubated in a climatized test cabinet at 18° C. and 12 h light exposure per day. After 18 days of incubation, the extent of infection was determined visually in %. The concentration is given in g of active compound (g a.i.) per 100 kg of seeds.

Assay [3] has as its system Puccinia recondita. As to the kind of experiment: Activity against Puccinia recondita on wheat (seed treatment). The note with it: 250 g a.i./100 kg seeds, inoculated 14 days after sowing, 7 days incubation, control 90. The procedure: as §2, with “Puccinia recondita” for “Septoria tritici”, “24” for “9.6”, “compounds listed in table 2 were in each case” for “compound Ia.90 was”, “1” for “0.5”, “14 days after sowing, the wheat plants were inoculated with a spore suspension of Septoria tritici.” left out, “7” for “24”

In assay [4] the test system is Phakopsora pachyrhizi. Description: Activity against Phakopsora pachyrhizi on soybean (solution pipetted to seedlings in vermiculite). Conditions: 250 g a.i./100 kg, inoculated 7 days after treatment, 14 days incubation, control 88. The protocol: Activity Against Phakopsora pachyrhizi on Soybean
The active compounds were formulated as a stock solution in dimethylsulfoxide at a concentration of 10 000 ppm. The stock solution was diluted with water to the stated active compound concentration. 1 ml of the respective solution was pipetted to soybean seedlings grown in vermiculite (1 seedling per pot). 7 days after the treatment the soybean plants were inoculated with a spore suspension of Phakopsora pachyrhizi. After 14 days of incubation, the extent of infection was determined visually in %. The concentration is given in g of active compound (g a.i.) per 100 kg of seeds.

The subject of assay [5] is Phakopsora pachyrhizi. As to the kind of experiment: Activity against Phakopsora pachyrhizi on soybean (seed treatment). The note with it: inoculated 14 days after sowing, 10 days incubation, control 87. The procedure: Activity Against Phakopsora pachyrhizi on soybean (Seed Treatment)
16 mg of the active compounds listed in table 3 were in each case dissolved in 1 ml of acetone to give a stock solution. The stock solution was diluted with acetone to give the test solution. Aliquots of 1.5 g of soybean seeds were placed in glass vials, where they were treated in an air stream with 0.6 ml of the test solution containing the active compound. In each case, 8 grains were sown in pots of 8 cm diameter. Untreated grains served as control. 14 days after sowing, the soybean plants were inoculated with a spore suspension of Phakopsora pachyrhizi. After 10 days of incubation, the extent of infection was determined visually in %. The concentration is given in g of active compound (g a.i.) per 100 kg of seeds.

The subject of assay [6] is Septoria tritici. As to the kind of experiment: Activity against Septoria tritici on wheat (solution pipetted to seedlings in vermiculite). Conditions: inoculated 7 days after treatment, 18 days incubation, control 60. The procedure:
as §1, with “Against Septoria tritici” for “Against Erysiphe graminis”, “active compound Ia.1 was” for “active compounds were”, “in dimethyl sulfoxide” for “in acetone”, “of Septoria tritici.” for “of Erysiphe graminis.”, “After 18” for “After 7”

For assay [7], the system named is Puccinia recondita. As to the kind of experiment: Activity against Puccinia recondita on wheat (solution pipetted to seedlings in vermiculite). The note with it: inoculated 7 days after treatment, 7 days incubation, control 80. The procedure:
as §1, with “Puccinia recondita” for “Erysiphe graminis”, “Puccinia recondita.” for “Erysiphe graminis.”

Regarding `Cn1cc(C(=O)Nc2ccccc2-c2cc(F)c(F)c(F)c2)c(C(F)F)n1` [Ia.90], the Infected leaf area in the assay on Erysiphe graminis (125 g a.i./100 kg) was determined as 0%; with Erysiphe graminis (250 g a.i./100 kg), 0%; in the assay with Septoria tritici [1] (25 g a.i./100 kg seeds), 1%; in the assay on Septoria tritici [1] (50 g a.i./100 kg seeds), 0%; in the assay on Septoria tritici [1] (100 g a.i./100 kg seeds), 0%; in the assay with Septoria tritici [2] (125 g a.i./100 kg), 7%. Further, the Infected leaf area with Septoria tritici [2] (250 g a.i./100 kg) came to 3%; in the assay on Puccinia recondita [3], 0%; in the assay with Phakopsora pachyrhizi [4], 0%; with Phakopsora pachyrhizi [5] (125 g a.i./100 kg seeds), 1%; in the assay with Phakopsora pachyrhizi [5] (250 g a.i./100 kg seeds), 2%; in the assay with Septoria tritici [6] (125 g a.i./100 kg), 0%. Also, the Infected leaf area with Septoria tritici [6] (250 g a.i./100 kg) was determined as 0%; in the assay on Puccinia recondita [7] (125 g a.i./100 kg), 2%; in the assay on Puccinia recondita [7] (250 g a.i./100 kg) it was 1%.
